Where “and” joins values, the source holds several entries; their conditions need not be identical. Identical values can stand only once. Like-named read-outs stand apart in the source and are kept apart here.
Columns and labels:
[1] = target: T1, NgTet1 (Naegleria gruberi, UniProt D2W6T1); test: biochemical; conditions: for normalised activity: NgTet1, NMR, 2 independent replicates
T1 construct: His6-tagged full-length Naegleria gruberi NgTet1 (321 a. a.) protein with a thrombin cleavage site; made in house; host or cells: E. coli BL21(DE3)
T1 sequence (D2W6T1 1-321): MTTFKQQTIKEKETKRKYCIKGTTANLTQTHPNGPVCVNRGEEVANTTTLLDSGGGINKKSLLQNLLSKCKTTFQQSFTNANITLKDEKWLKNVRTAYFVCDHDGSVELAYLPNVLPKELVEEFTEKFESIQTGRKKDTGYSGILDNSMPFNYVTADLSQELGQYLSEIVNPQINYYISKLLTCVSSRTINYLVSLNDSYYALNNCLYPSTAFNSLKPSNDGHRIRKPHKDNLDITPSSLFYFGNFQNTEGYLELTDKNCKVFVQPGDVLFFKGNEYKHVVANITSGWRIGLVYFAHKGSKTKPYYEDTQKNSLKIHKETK

[2] = target: T1, NgTet1; format: biochemical; conditions: for 2OG Concentration / Succinate Concentration: 20 μM 5HC DNA
Experimental: Double-stranded 12 bp DNA oligomers were added at a final concentration of 20 µM. […]
Double-stranded DNA oligomers were added at a final concentration of 20 µM. […]
All ^1H NMR spectra were recorded at 25 °C using D2O as a reference for internal deuterium lock on a Bruker Avance III 700 MHz equipped with an inverse TCI cryoprobe in 3 or 5 mm diameter tubes with a total sample volume of 160 or 565 μL, respectively. The water signal was reduced using Perfect Echo excitation sculpting suppression. Chemical shifts are reported in ppm relative to D2O (δH = 4.70 ppm).
Spectrometer settings were determined using a control sample containing all reaction components excluding enzyme. TET enzyme was added to an identical sample, and the resulting assay mixture was transferred to an NMR tube before deposition into the instrument. […] Spectrum recordings were carried out consecutively without delay. Data were processed using automated routines on MestReNova v14.2.0; signals of interest were integrated with absolute intensity scaling. ^1H NMR time courses reported in figures are representative results from two or three independent replicates.

With “5HC DNA: non-methylated DNA of the same sequence, 5'-ACC ACC GGT GGT-3', non-substrate (DNA ACCACCGGTGGT; DNA, backbone not given here)” the “uncoupled 2OG decarboxylase activity relative to control” value ([1]; 1.2 equivalents (6.17 μM) of ligand, no 5mC DNA substrate) was 188%, the normalised activity ([1]; -Log[inhibitor] (M) 3.77815) was 173.555% and 199.834% and the normalised activity ([1]; -Log[inhibitor] (M) 4.25527) was 239.054% and 238.734%. For the same substance, the normalised activity ([1]; -Log[inhibitor] (M) 4.73239) was 235.651% and 234.615%, the normalised activity ([1]; -Log[inhibitor] (M) 5.20951) was 188.852% and 186.764% and the normalised activity ([1]; -Log[inhibitor] (M) 5.68664) was 131.036% and 130.504%. The normalised activity ([1]; -Log[inhibitor] (M) 6.16376) was 99.9166% and 102.373%, the normalised activity ([1]; -Log[inhibitor] (M) 6.64088) was 99.5022% and 101.543% and the normalised activity ([1]; -Log[inhibitor] (M) 7.118) was 100.648% and 101.556%. For the same substance, the normalised activity ([1]; -Log[inhibitor] (M) 7.59512) was 99.7851% and 102.052%, the normalised activity ([1]; -Log[inhibitor] (M) 8.07224) was 101.874% and 100.284% and the “2OG Concentration” value ([2]; time 6.31667 min) was 88.5781 µM. The “Succinate Concentration” value ([2]; time 6.31667 min) was 11.4219 µM, the “2OG Concentration” value ([2]; time 9.38333 min) was 79.2717 µM and the “Succinate Concentration” value ([2]; time 9.38333 min) was 20.7283 µM. For the same substance, the “2OG Concentration” value ([2]; time 12.45 min) was 72.6874 µM, the “Succinate Concentration” value ([2]; time 12.45 min) was 27.3126 µM and the “2OG Concentration” value ([2]; time 15.5167 min) was 67.5286 µM. The “Succinate Concentration” value ([2]; time 15.5167 min) was 32.4714 µM, the “2OG Concentration” value ([2]; time 18.6 min) was 63.1853 µM and the “Succinate Concentration” value ([2]; time 18.6 min) was 36.8147 µM. For the same substance, the “V0 NgTet1” value ([2]; 20 µM DNA, 100 μM 2OG, 5 μM NgTet1) was 1.30 µM/min, the “2-OG turnover rate” value ([2]; 2-OG 50 uM, 20 µM DNA) was 1.2756 µM/min and 1.3302 µM/min and the “2-OG turnover rate” value ([2]; 2-OG 100 uM, 20 µM DNA) was 2.0544 µM/min and 2.2614 µM/min. For the same substance, the “2-OG turnover rate” value ([2]; 2-OG 200 uM, 20 µM DNA) was 3.7602 µM/min and 3.5166 µM/min, the “2-OG turnover rate” value ([2]; 2-OG 400 uM, 20 µM DNA) was 4.4538 µM/min and 4.2732 µM/min and the “2-OG turnover rate” value ([2]; 2-OG 700 uM, 20 µM DNA) was 4.9836 µM/min and 5.0838 µM/min. For the same substance, the “2-OG turnover rate” value ([2]; 2-OG 1000 uM, 20 µM DNA) was 5.3268 µM/min and 5.3442 µM/min, the “2-OG turnover rate” value ([2]; 2-OG 2000 uM, 20 µM DNA) was 5.8116 µM/min and 5.7954 µM/min and the “2-OG turnover rate” value ([2]; 2-OG 4000 uM, 20 µM DNA) was 6.75 µM/min and 6.036 µM/min. For the same substance, the “succinate” value ([2]; n = 1, time (min) 5HC DNA 5.9, AT DNA 5.81667, 5mC DNA 5.78333) was 7.407 µM, the “succinate” value ([2]; n = 1, time (min) 5HC DNA 8.98333, AT DNA 8.9, 5mC DNA 8.86667) was 12.5672 µM and the “succinate” value ([2]; n = 1, time (min) 5HC DNA 12.0667, AT DNA 11.9833, 5mC DNA 11.95) was 16.4606 µM. The “succinate” value ([2]; n = 1, time (min) 5HC DNA 15.1333, AT DNA 15.0667, 5mC DNA 15.0333) was 19.1176 µM, the “succinate” value ([2]; n = 1, time (min) 5HC DNA 18.2167, AT DNA 18.1333, 5mC DNA 18.1167) was 21.6247 µM and the “succinate” value ([2]; n = 1, time (min) 5HC DNA 21.3667, AT DNA 21.2333, 5mC DNA 21.2) was 24.6175 µM. For the same substance, the “succinate” value ([2]; n = 1, time (min) 5HC DNA 24.45, AT DNA 24.3167, 5mC DNA 24.2833) was 26.0885 µM, the “succinate” value ([2]; n = 1, time (min) 5HC DNA 27.5333, AT DNA 27.3833, 5mC DNA 27.3667) was 28.2137 µM and the “succinate” value ([2]; n = 1, time (min) 5HC DNA 30.6, AT DNA 30.4667, 5mC DNA 30.45) was 29.4575 µM. For the same substance, the “succinate” value ([2]; n = 1, time (min) 5HC DNA 33.6833, AT DNA 33.55, 5mC DNA 33.5333) was 31.2095 µM, the “succinate” value ([2]; n = 1, time (min) 5HC DNA 36.7667, AT DNA 36.6333, 5mC DNA 36.6167) was 32.5108 µM and the “succinate” value ([2]; n = 1, time (min) 5HC DNA 39.85, AT DNA 39.7167, 5mC DNA 39.7) was 33.8071 µM. For the same substance, the “succinate” value ([2]; n = 1, time (min) 5HC DNA 42.9333, AT DNA 42.8, 5mC DNA 42.7833) was 34.7457 µM, the “succinate” value ([2]; n = 1, time (min) 5HC DNA 46.0167, AT DNA 45.8833, 5mC DNA 45.8667) was 35.7895 µM and the “succinate” value ([2]; n = 1, time (min) 5HC DNA 49.0833, AT DNA 48.9667, 5mC DNA 48.95) was 37.2861 µM. The “succinate” value ([2]; n = 1, time (min) 5HC DNA 52.1667, AT DNA 52.05, 5mC DNA 52.0333) was 38.1768 µM, the “succinate” value ([2]; n = 1, time (min) 5HC DNA 55.25, AT DNA 55.1167, 5mC DNA 55.1167) was 38.5101 µM and the “succinate” value ([2]; n = 1, time (min) 5HC DNA 58.3333, AT DNA 58.2, 5mC DNA 58.2) was 39.4428 µM. For the same substance, the “succinate” value ([2]; n = 1, time (min) 5HC DNA 61.4, AT DNA 61.2833, 5mC DNA 61.2833) was 40.1071 µM, the “succinate” value ([2]; n = 1, time (min) 5HC DNA 64.4833, AT DNA 64.3833, 5mC DNA 64.35) was 40.323 µM and the “succinate” value ([2]; n = 2, time (min) 5HC DNA 5.81667, AT DNA 5.61667, 5mC DNA 6.08333) was 6.9553 µM. The “succinate” value ([2]; n = 2, time (min) 5HC DNA 8.88333, AT DNA 8.7, 5mC DNA 9.16667) was 12.0978 µM, the “succinate” value ([2]; n = 2, time (min) 5HC DNA 12.0333, AT DNA 11.7833, 5mC DNA 12.25) was 15.5692 µM and the “succinate” value ([2]; n = 2, time (min) 5HC DNA 15.1167, AT DNA 14.8667, 5mC DNA 15.3167) was 18.665 µM. For the same substance, the “succinate” value ([2]; n = 2, time (min) 5HC DNA 18.1833, AT DNA 17.9333, 5mC DNA 18.4) was 21.5442 µM, the “succinate” value ([2]; n = 2, time (min) 5HC DNA 21.2667, AT DNA 21.0167, 5mC DNA 21.4833) was 23.7344 µM and the “succinate” value ([2]; n = 2, time (min) 5HC DNA 24.35, AT DNA 24.1, 5mC DNA 24.5667) was 25.3146 µM. For the same substance, the “succinate” value ([2]; n = 2, time (min) 5HC DNA 27.4333, AT DNA 27.1833, 5mC DNA 27.65) was 27.7156 µM, the “succinate” value ([2]; n = 2, time (min) 5HC DNA 30.5167, AT DNA 30.2667, 5mC DNA 30.7333) was 29.219 µM and the “succinate” value ([2]; n = 2, time (min) 5HC DNA 33.6, AT DNA 33.35, 5mC DNA 33.8167) was 30.6366 µM. For the same substance, the “succinate” value ([2]; n = 2, time (min) 5HC DNA 36.6833, AT DNA 36.4333, 5mC DNA 36.9) was 31.7592 µM, the “succinate” value ([2]; n = 2, time (min) 5HC DNA 39.7667, AT DNA 39.5167, 5mC DNA 39.9833) was 33.6089 µM and the “succinate” value ([2]; n = 2, time (min) 5HC DNA 42.8333, AT DNA 42.6, 5mC DNA 43.0667) was 34.5619 µM. For the same substance, the “succinate” value ([2]; n = 2, time (min) 5HC DNA 45.9167, AT DNA 45.6833, 5mC DNA 46.15) was 35.6503 µM, the “succinate” value ([2]; n = 2, time (min) 5HC DNA 49, AT DNA 48.7667, 5mC DNA 49.2333) was 37.1492 µM and the “succinate” value ([2]; n = 2, time (min) 5HC DNA 52.0833, AT DNA 51.85, 5mC DNA 52.3167) was 37.4628 µM. The “succinate” value ([2]; n = 2, time (min) 5HC DNA 55.1667, AT DNA 54.9333, 5mC DNA 55.4) was 38.3288 µM, the “succinate” value ([2]; n = 2, time (min) 5HC DNA 58.25, AT DNA 58.0167, 5mC DNA 58.4833) was 38.622 µM and the “succinate” value ([2]; n = 2, time (min) 5HC DNA 61.3333, AT DNA 61.1, 5mC DNA 61.5667) was 40.1844 µM. The “succinate” value ([2]; n = 2, time (min) 5HC DNA 64.4167, AT DNA 64.1667, 5mC DNA 64.65) was 40.2655 µM, the “Relative V0 NgTet1” value ([2]; relative to reactions without DNA) was 3.6 and the “Vmax^app” value ([2]; with 20 µM 5HC DNA) was 6.47 µM/min. For the same substance, the “kcat^app” value ([2]; with 20 µM 5HC DNA) was 0.0217 s⁻¹.

Reference: article PMC11662004 (Communications Chemistry, 2024)
